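These data come from cells grown in 96-well plates and exposed to compound for 48 hours at five concentrations. At the GI50, growth is halved.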 Active and inactive are the calls of the source. Cut-off read from the data, not from the text of the source: active = GI50 up to about 1.1 µM and inactive = higher.

Some test systems named below: MDA-N; SNB-75; SN12C; OVCAR-3; U-251; HOP-62; NCI-H522; SK-MEL-5; COLO 205; NCI-H460; 786-0; T47D; HCC 2998; OVCAR-5; UO-31; UACC-257; OVCAR-8; HCT-15; A498.
Common to all, as to experiment: NCI-60 cell line screen, 48 h

With `c1ccc2c3nnc(c2c1)SCCCSc1nnc(c2ccccc12)SCCCS3`, the GI50 in the assay with MDA-N is > 100 µM (inactive); in the assay on SNB-75 it was 25.2 µM (inactive); with SN12C, > 100 µM (inactive); in the assay with OVCAR-3, 25.8 µM (inactive); in the assay with U-251, 76 µM (inactive); with HOP-62, 24.2 µM (inactive). Moreover, the GI50 was 42.5 µM (inactive) in the assay with NCI-H522; 23 µM (inactive) with SK-MEL-5; > 100 µM (inactive) in the assay with COLO 205; 34.4 µM (inactive) with NCI-H460; 54.1 µM (inactive) with 786-0; > 100 µM (inactive) in the assay on T47D. For the same compound, the GI50 was > 100 µM (inactive) in the assay on HCC 2998; > 100 µM (inactive) with OVCAR-5; > 100 µM (inactive) in the assay on UO-31; > 100 µM (inactive) in the assay on UACC-257; 36.7 µM (inactive) with OVCAR-8; more than 100 µM in the assay with HCT-15. For the same compound, the GI50 in the assay with A498 was 61.1 µM (inactive).
For `C=C1[C@H](OCC(C)C)[C@@H](OC(=O)C(C)CC)[C@@H](O)C(C)(C)/C=C/[C@H](C)C(=O)[C@@]2(O)C[C@H](C)[C@H](O)[C@@H]2[C@H]1OC(=O)C(C)CC` (stereo partly specified), the GI50 was 1.26 µM (inactive) in the assay on MDA-N; 1.41 µM (inactive) with SNB-75; 7.29 µM (inactive) in the assay with SN12C; 4.94 µM (inactive) with OVCAR-3; 5.82 µM (inactive) in the assay on U-251; 2.17 µM (inactive) in the assay with HOP-62. The GI50 was 8.63 µM (inactive) in the assay with NCI-H522; 2.23 µM (inactive) with SK-MEL-5; 0.904 µM (active) in the assay on COLO 205; 0.463 µM (active) with NCI-H460; 4.1 µM (inactive) with 786-0; > 13.1 µM (inactive) in the assay on T47D. Moreover, the GI50 was 2.84 µM (inactive) in the assay with HCC 2998; 6.37 µM (inactive) with OVCAR-5; 0.499 µM (active) with UO-31; 5.22 µM (inactive) in the assay on UACC-257; 9.98 µM (inactive) in the assay with OVCAR-8; 7.82 µM in the assay on HCT-15. For the same compound, the GI50 in the assay with A498 was 3.28 µM (inactive).
Consider `O=C(Oc1ccc(OC(Oc2ccccc2)c2ccccc2)cc1)c1ccccc1` (stereo unspecified), for which the GI50 with MDA-N was 14.4 µM (inactive); in the assay on SNB-75 it was 27.5 µM (inactive); with SN12C it was 28.8 µM (inactive); in the assay on OVCAR-3, 25.4 µM (inactive); in the assay with U-251 it was > 75.7 µM (inactive); with HOP-62, 13.9 µM (inactive). Moreover, the GI50 in the assay with NCI-H522 was 49.2 µM (inactive); in the assay on SK-MEL-5 it was 22.1 µM (inactive); with COLO 205, > 31.6 µM (inactive); with NCI-H460, > 63.2 µM (inactive); in the assay with 786-0, > 31.6 µM (inactive); in the assay with T47D, 50 µM (inactive). Moreover, the GI50 in the assay with HCC 2998 was 17.6 µM (inactive); in the assay on OVCAR-5, > 74.1 µM (inactive); in the assay on UO-31 it was 16 µM (inactive); in the assay on UACC-257, 17.9 µM (inactive); in the assay with OVCAR-8, > 31.6 µM (inactive); in the assay on HCT-15 it was more than 10 µM. Besides, the GI50 in the assay on A498 was 18.6 µM (inactive).
Turning to `O=C1C(Cl)=C(N[C@@H](Cc2ccccc2)C(=O)OCc2ccccc2)C(=O)c2c(O)ccc(O)c21`, the GI50 was 2.89 µM (inactive) in the assay on MDA-N; 4.73 µM (inactive) in the assay with SNB-75; 3.93 µM (inactive) in the assay on SN12C; 2.45 µM (inactive) in the assay with OVCAR-3; 3.01 µM (inactive) in the assay with U-251; 3.52 µM (inactive) in the assay on HOP-62. For the same compound, the GI50 is 6.41 µM (inactive) in the assay with NCI-H522; 3.24 µM (inactive) in the assay on SK-MEL-5; 2.28 µM (inactive) with COLO 205; 4.59 µM (inactive) with NCI-H460; 3.11 µM (inactive) with 786-0; > 10 µM (inactive) in the assay on T47D. The GI50 in the assay with HCC 2998 is > 10 µM (inactive); in the assay on OVCAR-5 it was 6.18 µM (inactive); in the assay with UACC-257, > 10 µM (inactive); in the assay with OVCAR-8 it was 3.73 µM (inactive); in the assay with HCT-15, 1.19 µM; in the assay with A498 it was 7.33 µM (inactive).
As for `O=C(NCc1cccnc1)NCc1cccnc1`, the GI50 with MDA-N, with SNB-75, in the assay with SN12C, in the assay with OVCAR-3, in the assay on U-251 and with HOP-62 was > 100 µM (inactive) throughout. Also, the GI50 with NCI-H522, in the assay on SK-MEL-5, in the assay with COLO 205, in the assay on NCI-H460, in the assay with 786-0 and in the assay on T47D was > 100 µM (inactive) throughout. For the same compound, the GI50 is > 100 µM (inactive) in the assay on HCC 2998; > 100 µM (inactive) in the assay on OVCAR-5; > 100 µM (inactive) in the assay with UO-31; > 100 µM (inactive) in the assay with UACC-257; > 100 µM (inactive) in the assay with OVCAR-8; more than 100 µM in the assay with HCT-15. Moreover, in the assay on A498, the GI50 was > 100 µM (inactive).
With `CC1(C)[C@H]2CC[C@@]13C(=O)N1C(=O)O[C@@H]([C@H]1Cl)C(Cl)(COCc1ccccc1)C(=O)OCCO[C@H]3C2` (stereo partly specified), the GI50 was 64.9 µM (inactive) in the assay on MDA-N; > 100 µM (inactive) with SNB-75; 54.2 µM (inactive) in the assay with OVCAR-3; 39.4 µM (inactive) with U-251; > 100 µM (inactive) in the assay on HOP-62; 34.8 µM (inactive) in the assay on NCI-H522. Further, the GI50 with SK-MEL-5 is 29.9 µM (inactive); in the assay on COLO 205, 18 µM (inactive); with NCI-H460, 53.6 µM (inactive); with 786-0, 70 µM (inactive); in the assay on T47D, 43.1 µM (inactive); in the assay with HCC 2998, 57.3 µM (inactive). The GI50 is > 100 µM (inactive) in the assay on OVCAR-5; 96.4 µM (inactive) in the assay with UO-31; 48.9 µM (inactive) in the assay on UACC-257; > 100 µM (inactive) in the assay on OVCAR-8; 40.8 µM in the assay with HCT-15; > 100 µM (inactive) with A498.
On to `COc1ccc(C(CC(C)=O)c2c(O)c3ccccc3oc2=O)cc1OC` (stereo unspecified), for which the GI50 with MDA-N, in the assay with SNB-75, in the assay with SN12C, in the assay on OVCAR-3, in the assay on U-251 and in the assay with HOP-62 was > 100 µM (inactive) each time. Also, the GI50 in the assay on NCI-H522, in the assay with SK-MEL-5, with COLO 205, in the assay with NCI-H460, in the assay with 786-0 and in the assay with T47D was > 100 µM (inactive) in each case. Further, the GI50 was > 100 µM (inactive) in the assay with HCC 2998; > 100 µM (inactive) in the assay with OVCAR-5; > 100 µM (inactive) in the assay with UO-31; > 100 µM (inactive) with UACC-257; > 100 µM (inactive) with OVCAR-8; more than 100 µM in the assay on HCT-15. The GI50 with A498 was > 100 µM (inactive).
For the compound `N#Cc1c(Cl)nc2ccccc2c1N=[N+]=[N-]`, the GI50 was 13.3 µM (inactive) in the assay on MDA-N; 8.67 µM (inactive) in the assay with SNB-75; 5.14 µM (inactive) with SN12C; 1.78 µM (inactive) with OVCAR-3; 5.19 µM (inactive) in the assay on U-251; 17.3 µM (inactive) in the assay on HOP-62. For the same compound, the GI50 in the assay on NCI-H522 was 1.99 µM (inactive); in the assay with SK-MEL-5, 14.2 µM (inactive); in the assay with COLO 205, 1.88 µM (inactive); in the assay on NCI-H460 it was 5.19 µM (inactive); in the assay with 786-0 it was 2.8 µM (inactive); in the assay on T47D it was 2.47 µM (inactive). In addition, the GI50 is 6.12 µM (inactive) with HCC 2998; 6.61 µM (inactive) in the assay on OVCAR-5; 4.71 µM (inactive) with UO-31; 12.7 µM (inactive) in the assay on UACC-257; 3.02 µM (inactive) in the assay with OVCAR-8; 2.02 µM in the assay on HCT-15. The GI50 with A498 was 21.7 µM (inactive).
On to `Cc1ccc(S(=O)(=O)NNC(=O)Nc2ccc([N+](=O)[O-])cc2)cc1`, for which the GI50 in the assay on MDA-N is > 100 µM (inactive); with SNB-75 it was 72.9 µM (inactive); with SN12C it was 97.1 µM (inactive); in the assay with OVCAR-3, 19.6 µM (inactive); with U-251, 31 µM (inactive); in the assay with HOP-62 it was 27.9 µM (inactive). Besides, the GI50 with NCI-H522 is 26.5 µM (inactive); with SK-MEL-5, 29 µM (inactive); with COLO 205, 42.3 µM (inactive); in the assay on NCI-H460, 23.9 µM (inactive); with 786-0 it was 24.9 µM (inactive); in the assay with T47D, 2.65 µM (inactive). For the same compound, the GI50 was 64.9 µM (inactive) in the assay on HCC 2998; > 100 µM (inactive) with OVCAR-5; 47 µM (inactive) with UO-31; 46.5 µM (inactive) with UACC-257; 17.4 µM (inactive) in the assay on OVCAR-8; 24.5 µM in the assay on HCT-15. Besides, the GI50 in the assay on A498 is 37.8 µM (inactive).
As for `CCOP(=O)(OCC)/C(C#N)=C/c1ccc(-c2cc(C(F)(F)F)cc(C(F)(F)F)c2)o1`, the GI50 with MDA-N was 13.3 µM (inactive); with SNB-75, 10.5 µM (inactive); with SN12C, 15.1 µM (inactive); in the assay with OVCAR-3 it was 8.02 µM (inactive); with U-251, 12 µM (inactive); in the assay with HOP-62 it was 14.5 µM (inactive). Further, the GI50 is 10.4 µM (inactive) in the assay on NCI-H522; 12.4 µM (inactive) with COLO 205; 6.38 µM (inactive) with NCI-H460; 12.2 µM (inactive) in the assay with 786-0; 11.9 µM (inactive) in the assay on T47D; 8.45 µM (inactive) in the assay on HCC 2998. Further, the GI50 in the assay on OVCAR-5 was 13.3 µM (inactive); in the assay on UO-31, 16.8 µM (inactive); in the assay on UACC-257, 16.3 µM (inactive); in the assay with OVCAR-8 it was 16.2 µM (inactive); in the assay on HCT-15, 6.38 µM; in the assay on A498, 12.4 µM (inactive).
As to `COC(=O)[C@H](Cc1c[nH]c2ccccc12)NC(=O)c1ccc(CNC(=O)/C(C)=C/c2ccccc2)cc1`, the GI50 is 19.8 µM (inactive) in the assay with MDA-N; 0.497 µM (active) in the assay on SNB-75; > 100 µM (inactive) with SN12C; 28.6 µM (inactive) with OVCAR-3; 80 µM (inactive) in the assay with U-251; 92.5 µM (inactive) in the assay with HOP-62. Also, the GI50 in the assay with NCI-H522 is 14.6 µM (inactive); with SK-MEL-5, 17.4 µM (inactive); with COLO 205, 22.8 µM (inactive); with NCI-H460, 27.9 µM (inactive); in the assay on 786-0, > 100 µM (inactive); in the assay with T47D, 3.7 µM (inactive). The GI50 was 15.6 µM (inactive) with HCC 2998; > 100 µM (inactive) with OVCAR-5; 63.7 µM (inactive) in the assay on UO-31; 18 µM (inactive) with UACC-257; 66.7 µM (inactive) in the assay with OVCAR-8; 48.1 µM in the assay on HCT-15. Also, the GI50 with A498 is 22.6 µM (inactive).

The values above are taken from ChEMBL document CHEMBL1201862, “PubChem BioAssay data set” (2004).
